This is an account of results in US20240058450A1, “BCL-XL Inhibitory Compounds Having Low Cell Permeability and Antibody Drug Conjugates Including the Same” (AbbVie Inc., priority 2014, published 2024).

For test [1], the system named is Molt-4 human acute lymphoblastic leukemia cells. As to the kind of experiment: Molt-4 cell viability assay (CellTiter-Glo, 48 hours, 10% HS). The format is cell-based. As to conditions: non-permeabilized cells. The protocol:
The ability of Bcl-xL inhibitors that are able to traverse cell membranes to inhibit Bcl-xL can be determined in cell-based killing assays using a variety of cell lines and mouse tumor models. For example, their activity on cell viability can be assessed on a panel of cultured tumorigenic and non-tumorigenic cell lines, as well as primary mouse or human cell populations.
In one exemplary set of conditions, Molt-4 (ATCC, Manassas, VA) human acute lymphoblastic leukemia cells were plated 12,500 cells per well in 384-well tissue culture plates (Corning, Corning, NY) in a total volume of 25 μL tissue culture medium supplemented with 10% human serum (Sigma-Aldrich, St. Louis, MO) and treated with a 3-fold serial dilution of the compounds of interest from 10 μM to 0.0005 μM. Each concentration was tested in duplicate at least 3 separate times. The number of viable cells following 48 hours of compound treatment was determined using the CellTiter-Glo®, Luminescent Cell Viability Assay according to the manufacturer's recommendations (Promega Corp., Madison, WI). Compounds were tested in the presence of 10% HS.
A general note: In ATP-based viability assays light output follows the ATP content of the culture.

Test [2] addresses Bcl-xL (Homo sapiens, UniProt Q07817). As to the kind of experiment: Time Resolved-Fluorescence Resonance Energy Transfer (TR-FRET) binding assay, competition with probe F-Bak. The protocol: Tb-anti-GST antibody was purchased from Invitrogen (Catalog No. PV4216).
For the assay, test compounds were serially diluted in DMSO starting at 50 μM (2× starting concentration; 10% DMSO) and 10 μL transferred into a 384-well plate. 10 μL of a protein/probe/antibody mix was then added to each well at final concentrations listed below:
The samples were then mixed on a shaker for 1 minute and incubated for an additional 2 hours at room temperature. For each assay plate, a probe/antibody and protein/antibody/probe mixture were included as a negative and a positive control, respectively. Fluorescence was measured on the Envision (Perkin Elmer) using a 340/35 nm excitation filter and 520/525 (F-Bak) and 495/510 nm (Tb-labeled anti-his antibody) emission filters. Dissociation constants (Ki) were determined using Wang's equation (Wang, 1995, FEBS Lett. 360:111-114). The TR-FRET assay can be performed in the presence of varying concentrations of human serum (HS) or fetal bovine serum (FBS). Compounds were tested both without HS and in the presence of 1% HS.
(In general: Time-resolved FRET reads energy transfer from a long-lived donor to a nearby acceptor.)

Setting [3] is: in the presence of 1% HS, read-out: Bcl-xL Binding Ki (nM, 1% HS).
The mark [4] stands for this setting: without HS, read-out: Bcl-xL Binding Ki.

SMILES strings stand for the structures. Read-outs that look alike come from different tables or passages of the source. Where only a bound is given, the exact number is not on record here.

Chain of Bcl-xL (Q07817 whole entry): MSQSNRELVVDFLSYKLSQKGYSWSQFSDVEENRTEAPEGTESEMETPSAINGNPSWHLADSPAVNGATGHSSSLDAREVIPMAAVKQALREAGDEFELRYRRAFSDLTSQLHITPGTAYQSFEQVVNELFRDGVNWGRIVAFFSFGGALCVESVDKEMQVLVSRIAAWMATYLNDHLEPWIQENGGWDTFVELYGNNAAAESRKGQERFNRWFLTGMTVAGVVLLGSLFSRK

The term EC50 denotes the midpoint of the concentration-response curve. A high value points to weaker potency. Usually Ki stands for the dissociation constant of the complex between target and ligand, obtained from inhibition or displacement. `Cc1c(-c2ccc(N3CCc4cccc(C(=O)Nc5nc6ccccc6s5)c4C3)nc2C(=O)O)cnn1CC12CC3(C)CC(C)(C1)CC(OCCN(C)C(=O)[C@H](N)CC(=O)O)(C3)C2` [Example 1.27] displayed an EC50 in test [1] of 935 nM. Further, the Ki is 0.18 nM in test [2] (setting [3]) and less than 0.001 nM in test [2] (setting [4]).

On to `Cc1c(-c2ccc(N3CCc4cccc(C(=O)Nc5nc6ccccc6s5)c4C3)nc2C(=O)O)cnn1CC12CC3(C)CC(C)(C1)CC(OCCNC1CCN(CC(=O)O)CC1)(C3)C2` [Example 1.28, 6-[8-(1,3-benzothiazol-2-ylcarbamoyl)-3,4-dihydroisoquinolin-2 (1H)-yl]-3-(1-{[3-(2-{[1-(carboxymethyl)piperidin-4-yl]amino}ethoxy)-5,7-dimethyltricyclo[3.3.1.1^3,7]dec-1-yl]methyl}-5-methyl-1H-pyrazol-4-yl}pyridine-2-carboxylic acid], for which the EC50 in test [1] (Homo sapiens, MOLT-4, 48 h) amounted to 568 nM. The Ki in test [2] (setting [3]) is 0.046 nM; in test [2] (setting [4]), less than 0.001 nM.

In test [1] (Homo sapiens, MOLT-4, 48 h), `Cc1c(-c2ccc(N3CCc4cccc(C(=O)Nc5nc6ccccc6s5)c4C3)nc2C(=O)O)cnn1CC12CC3(C)CC(C)(C1)CC(OCCN(CCS(=O)(=O)O)C1CCNCC1)(C3)C2` [Example 1.30, 6-[8-(1,3-benzothiazol-2-ylcarbamoyl)-3,4-dihydroisoquinolin-2 (1H)-yl]-3-{1-[(3,5-dimethyl-7-{2-[piperidin-4-yl(2-sulfoethyl)amino]ethoxy}tricyclo[3.3.1.1^3,7]dec-1-yl)methyl]-5-methyl-1H-pyrazol-4-yl}pyridine-2-carboxylic acid] showed an EC50 of 184 nM. Further, the Ki in test [2] (setting [3]) is 0.12 nM; in test [2] (setting [4]), less than 0.001 nM.

`CNCCOC12CC3(C)CC(C)(CC(Cn4ncc(-c5ccc(N6CCc7c(OCCCP(=O)(O)O)ccc(C(=O)Nc8nc9ccccc9s8)c7C6)nc5C(=O)O)c4C)(C3)C1)C2` [Example 1.31, 6-[8-(1,3-benzothiazol-2-ylcarbamoyl)-5-(3-phosphonopropoxy)-3,4-dihydroisoquinolin-2 (1H)-yl]-3-[1-({3,5-dimethyl-7-[2-(methylamino)ethoxy]tricyclo[3.3.1.1^3,7]dec-1-yl}methyl)-5-methyl-1H-pyrazol-4-yl]pyridine-2-carboxylic acid] yielded an EC50 in test [1] (Homo sapiens, MOLT-4, 48 h) of 446 nM. For the same compound, the values for the Ki in test [2] (setting [3]) and in test [2] (setting [4]) were 0.055 nM and less than 0.001 nM, respectively.

On to `Cc1c(-c2ccc(N3CCc4cccc(C(=O)Nc5nc6ccccc6s5)c4C3)nc2C(=O)O)cnn1CC12CC3(C)CC(C)(C1)CC(OCCN(CCN)CCS(=O)(=O)O)(C3)C2` [Example 1.33, 3-{1-[(3-{2-[(2-aminoethyl)(2-sulfoethyl)amino]ethoxy}-5,7-dimethyltricyclo[3.3.1.1^3,7]dec-1-yl)methyl]-5-methyl-1H-pyrazol-4-yl}-6-[8-(1,3-benzothiazol-2-ylcarbamoyl)-3,4-dihydroisoquinolin-2 (1H)-yl]pyridine-2-carboxylic acid], for which, in test [1] (Homo sapiens, MOLT-4, 48 h), the response was half-maximal at 319 nM (EC50). Further, the figures for the Ki in test [2] (setting [3]) and in test [2] (setting [4]) were 0.12 nM and less than 0.001 nM, respectively.

As for `CNCCOC12CC3(C)CC(C)(CC(Cn4ncc(-c5ccc(N6CCc7c(OCCN)ccc(C(=O)Nc8nc9ccccc9s8)c7C6)nc5C(=O)O)c4C)(C3)C1)C2` [Example 1.34, 6-[5-(2-aminoethoxy)-8-(1,3-benzothiazol-2-ylcarbamoyl)-3,4-dihydroisoquinolin-2 (1H)-yl]-3-[1-({3,5-dimethyl-7-[2-(methylamino)ethoxy]tricyclo[3.3.1.1^3,7]dec-1-yl}methyl)-5-methyl-1H-pyrazol-4-yl]pyridine-2-carboxylic acid], in test [1] (Homo sapiens, MOLT-4, 48 h), the midpoint of the response, the EC50, lay at 87.7 nM. Further, the Ki in test [2] (setting [3]) was 0.031 nM.

For the compound `Cc1c(-c2ccc(-c3ccc4cccc(C(=O)Nc5nc6ccccc6s5)c4c3)nc2C(=O)O)cnn1CC12CC3(C)CC(C)(C1)CC(OCCNCCCS(=O)(=O)O)(C3)C2` [Example 1.35, 6-[8-(1,3-benzothiazol-2-ylcarbamoyl)naphthalen-2-yl]-3-{1-[(3,5-dimethyl-7-{2-[(3-sulfopropyl)amino]ethoxy}tricyclo[3.3.1.1^3,7]dec-1-yl)methyl]-5-methyl-1H-pyrazol-4-yl}pyridine-2-carboxylic acid], a half-maximal response in test [1] (Homo sapiens, MOLT-4, 48 h) (EC50) required 238 nM. The results for the Ki in test [2] (setting [3]) and in test [2] (setting [4]) were 0.439 nM and less than 0.001 nM, respectively.

As to `Cc1c(-c2ccc(N3CCc4cccc(C(=O)Nc5nc6ccccc6s5)c4C3)nc2C(=O)O)cnn1CC12CC3(C)CC(C)(C1)CC(OCCN(CCC(=O)O)C1CCNCC1)(C3)C2` [Example 1.36, 6-[8-(1,3-benzothiazol-2-ylcarbamoyl)-3,4-dihydroisoquinolin-2 (1H)-yl]-3-{1-[(3-{2-[(2-carboxyethyl)(piperidin-4-yl)amino]ethoxy}-5,7-dimethyltricyclo[3.3.1.1^3,7]dec-1-yl)methyl]-5-methyl-1H-pyrazol-4-yl}pyridine-2-carboxylic acid], in test [1] (Homo sapiens, MOLT-4, 48 h), the EC50 was determined as 405 nM. For the same compound, the figures for the Ki in test [2] (setting [3]) and in test [2] (setting [4]) were 0.0635 nM and less than 0.001 nM, respectively.

Regarding `Cc1c(-c2ccc(N3CCc4cccc(C(=O)Nc5nc6ccccc6s5)c4C3)nc2C(=O)O)cnn1CC12CC3(C)CC(C)(C1)CC(OCCN(CCS(=O)(=O)O)C(=O)[C@@H](N)CS(=O)(=O)O)(C3)C2` [Example 1.37, 6-[8-(1,3-benzothiazol-2-ylcarbamoyl)-3,4-dihydroisoquinolin-2 (1H)-yl]-3-{1-[(3,5-dimethyl-7-{2-[(3-sulfo-L-alanyl)(2-sulfoethyl)amino]ethoxy}tricyclo[3.3.1.1^3,7]dec-1-yl)methyl]-5-methyl-1H-pyrazol-4-yl}pyridine-2-carboxylic acid], a half-maximal response in test [1] (Homo sapiens, MOLT-4, 48 h) (EC50) required 805 nM. Moreover, the Ki in test [2] (setting [3]) was 0.294 nM; in test [2] (setting [4]), less than 0.001 nM.

Compound `Cc1c(-c2ccc(N3CCc4cccc(C(=O)Nc5nc6cccnc6s5)c4C3)nc2C(=O)O)cnn1CC12CC3(C)CC(C)(C1)CC(OCCNCCCP(=O)(O)O)(C3)C2` [Example 1.40, 3-{1-[(3,5-dimethyl-7-{2-[(3-phosphonopropyl)amino]ethoxy}tricyclo[3.3.1.1^3,7]dec-1-yl)methyl]-5-methyl-1H-pyrazol-4-yl}-6-[8-([1,3]thiazolo[5,4-b]pyridin-2-ylcarbamoyl)-3,4-dihydroisoquinolin-2 (1H)-yl]pyridine-2-carboxylic acid] showed an EC50 in test [1] (Homo sapiens, MOLT-4, 48 h) of 6480 nM. Besides, the Ki in test [2] (setting [3]) was 6.28 nM; in test [2] (setting [4]), less than 0.001 nM.

In test [1] (Homo sapiens, MOLT-4, 48 h), `Cc1c(-c2ccc(N3CCc4cccc(C(=O)Nc5nc6ccccc6s5)c4C3)nc2C(=O)O)cnn1CC12CC3(C)CC(C)(C1)CC(OCCN(CCCC(=O)O)C1CCNCC1)(C3)C2` [Example 1.42, 6-[8-(1,3-benzothiazol-2-ylcarbamoyl)-3,4-dihydroisoquinolin-2 (1H)-yl]-3-{1-[(3-{2-[(3-carboxypropyl)(piperidin-4-yl)amino]ethoxy}-5,7-dimethyltricyclo[3.3.1.1^3,7]dec-1-yl)methyl]-5-methyl-1H-pyrazol-4-yl}pyridine-2-carboxylic acid] returned an EC50 of 482 nM. For the same compound, the Ki in test [2] (setting [3]) is 0.133 nM; in test [2] (setting [4]), less than 0.001 nM.

Turning to `Cc1c(-c2ccc(-c3ccc4cccc(C(=O)Nc5nc6ccccc6s5)c4c3)nc2C(=O)O)cnn1CC12CC3(C)CC(C)(C1)CC(OCCNCCS(=O)(=O)O)(C3)C2` [Example 1.43, 6-[8-(1,3-benzothiazol-2-ylcarbamoyl)naphthalen-2-yl]-3-{1-[(3,5-dimethyl-7-{2-[(2-sulfoethyl)amino]ethoxy}tricyclo[3.3.1.1^3,7]dec-1-yl)methyl]-5-methyl-1H-pyrazol-4-yl}pyridine-2-carboxylic acid], the EC50 in test [1] (Homo sapiens, MOLT-4, 48 h) came out at 185 nM. In addition, the Ki in test [2] (setting [3]) was 0.86 nM; in test [2] (setting [4]), less than 0.001 nM.

`Cc1c(-c2ccc(N3CCc4cccc(C(=O)Nc5nc6ccccc6s5)c4C3)nc2C(=O)O)cnn1CC12CC3(C)CC(C)(C1)CC(OCCN(CCNCCS(=O)(=O)O)CCS(=O)(=O)O)(C3)C2` [Example 1.48, 6-[8-(1,3-benzothiazol-2-ylcarbamoyl)-3,4-dihydroisoquinolin-2 (1H)-yl]-3-{1-[(3,5-dimethyl-7-{2-[(2-sulfoethyl){2-[(2-sulfoethyl)amino]ethyl}amino]ethoxy}tricyclo[3.3.1.1^3,7]dec-1-yl)methyl]-5-methyl-1H-pyrazol-4-yl}pyridine-2-carboxylic acid]: the EC50 in test [1] (Homo sapiens, MOLT-4, 48 h) was found to be 692 nM. Further, the Ki in test [2] (setting [3]) is 0.497 nM; in test [2] (setting [4]), less than 0.001 nM.
